Reference: patent US20130243847A1, “ACTIVATED CREATININE AND PRECURSORS THEREOF AS ANTIBACTERIAL AGENTS, COMPOSITIONS AND PRODUCTS CONTAINING SUCH AGENTS AND USE THEREOF” (BOARD OF REGENTS OF THE UNIVERSITY OF NEBRASKA, priority 2010, published 2013)

Columns and labels:
Format in all cases: cell-based
[1] = test system: S. aureus; assay: Disc diffusion assay of creatine esters (Example 6); conditions: approx. 50 μL anhydrous polyethylene glycol carrier with 28% by weight agent
Method: Four (4) different creatine esters were prepared according to the method of U.S. Pat. No. 6,897,334 to Vennerstrom. The esters thus prepared were activated in the manner described herein to impart antibacterial activity thereto. Four (4) test formulations were prepared, each including approximately 50 μL of an anhydrous polyethylene glycol carrier containing 28% by weight of a different creatine ester. Each formulation was added to a 6 mm disc and inverted onto a brain heart infusion agar plate that was previously spread with S. aureus at 10^5 organisms per mL. Plates were incubated at 37° C. overnight and the clear zones showing inhibition of bacterial growth were measured.

[2] = test system: Staphylococcus aureus; assay: Disc assay of creatinine activated with different acids (Example 1, FIG. 1); conditions: for antibacterial activity after acid activation (FIG. 1): 5 mg acidified creatinine in Eridex on 6 mm disc, pH 5.0-5.5, S. aureus 10^5 per mL; for antibacterial activity of acid in Eridex alone: without creatinine at pH 5.5
Method: A 2 molar solution of anhydrous creatinine (Sigma-Aldrich Chemical Co. St. Louis, Mo.) was prepared in water (113 mg in 0.5 ml H2O) and adjusted to pH 5.0-5.5 with different acids. Twenty five microliters of each pH adjusted solution was added to 30 milligrams of a powdered carrier, Eridex™, (crystalline sugar alcohol) (Cargill Inc. Cedar Rapids, Iowa), and stirred into a thickened slurry. Approximately 50 microliters of each mixture, containing 5 mg of acidified creatinine, was applied to a 6 mm disc and inverted onto a brain heart infusion agar plate that was spread one hour prior with Staphylococcus aureus diluted to 10^5 organisms per milliliter. Plates were incubated at 37° C. overnight and the clear zones showing inhibition of bacterial growth were measured. Each sample was run in duplicate and reported as an average +/−1 mm of the two measurements. Creatinine HCl was used as an internal standard on each plate to provide uniformity from plate to plate (measurements varied <0.5 mm). Hydrochloride sig, a commercial creatinine HCl salt from Sigma-Aldrich, was used at pH 5.0 with no adjustment.

[3] = test system: Acinetobacter baumannii high level resistance (HLR); assay: Disc diffusion assay, CEE vs gentamicin; conditions: A. baumannii HLR; 50 mg anhydrous topical cream with 28% by weight agent; gentamicin 10 μg disc
Method: (§1) This testing involved the use of 50 mg of an anhydrous topical cream containing the antibacterial agent of the invention in an amount of 28% by weight and 10 μg of gentamicin, impregnated into a standard commercially available disc (Remel, Lenoxa Kans.).

[4] = test system: Candida albicans laboratory strain 24433; assay: Disc diffusion assay, CEE vs gentamicin; conditions: C. albicans laboratory strain 24433; 50 mg anhydrous topical cream with 28% by weight agent; gentamicin 10 μg disc
Method: as §1

[5] = test system: Enterococcus faecalis laboratory strain 29212; assay: Disc diffusion assay, CEE vs gentamicin; conditions: E. faecalis laboratory strain 29212; 50 mg anhydrous topical cream with 28% by weight agent; gentamicin 10 μg disc
Method: as §1

[6] = test system: Enterococcus faecium vancomycin resistant (VRE); assay: Disc diffusion assay, CEE vs gentamicin; conditions: E. faecium VRE; 50 mg anhydrous topical cream with 28% by weight agent; gentamicin 10 μg disc
Method: as §1

[7] = test system: Escherichia coli laboratory strain 35150; assay: Disc diffusion assay, CEE vs gentamicin; conditions: E. coli laboratory strain 35150; 50 mg anhydrous topical cream with 28% by weight agent; gentamicin 10 μg disc
Method: as §1

[8] = test system: Pseudomonas aeruginosa high level resistance (HLR); assay: Disc diffusion assay, CEE vs gentamicin; conditions: P. aeruginosa HLR; 50 mg anhydrous topical cream with 28% by weight agent; gentamicin 10 μg disc
Method: as §1

[9] = test system: Pseudomonas aeruginosa laboratory strain 27853; assay: Disc diffusion assay, CEE vs gentamicin; conditions: P. aeruginosa laboratory strain 27853; 50 mg anhydrous topical cream with 28% by weight agent; gentamicin 10 μg disc
Method: as §1

[10] = test system: Staphylococcus aureus laboratory strain 29213; assay: Disc diffusion assay, CEE vs gentamicin; conditions: S. aureus laboratory strain 29213; 50 mg anhydrous topical cream with 28% by weight agent; gentamicin 10 μg disc
Method: as §1

[11] = test system: Staphylococcus aureus methicillin resistant (MRSA); assay: Disc diffusion assay, CEE vs gentamicin; conditions: S. aureus MRSA; 50 mg anhydrous topical cream with 28% by weight agent; gentamicin 10 μg disc
Method: as §1

[12] = test system: Escherichia coli beta lactamase producer (ESBL); conditions: E. coli ESBL; 50 mg anhydrous topical cream with 28% by weight agent; gentamicin 10 μg disc
Method: as §1

CN(CC(=O)OCc1ccccc1)C(=N)N [Benzyl]
Zone of Inhibition [1]: 23 mm

CCCCCCCCOC(=O)CN(C)C(=N)N [Octyl]
Zone of Inhibition [1]: 27 mm

CC(=O)O [acetate]
antibacterial activity after acid activation (FIG. 1) [2]: significant activity
antibacterial activity after acid activation (FIG. 1) ([2]; listed as creatinine activated with acetic acid): substantially greater antibacterial activity than creatinine activated with nitric or hydrochloric acid

CC(=O)O [acetic acid, reference compound]
antibacterial activity of acid in Eridex alone [2]: no antibacterial activity

O=C(O)CC(O)(CC(=O)O)C(=O)O [citric acid, reference compound]
antibacterial activity of acid in Eridex alone [2]: no antibacterial activity

Gentamicin [Gn, reference compound]
Zone of Inhibition [3]: 6 mm
Zone of Inhibition [4]: 8 mm
Zone of Inhibition [5]: 14 mm
Zone of Inhibition [6]: 8 mm
Zone of Inhibition [7]: 21 mm
Zone of Inhibition [8]: 8 mm
Zone of Inhibition [9]: 21 mm
Zone of Inhibition [10]: 24 mm
Zone of Inhibition [11]: 7 mm
Zone of Inhibition [12]: 24 mm

citrate
antibacterial activity after acid activation (FIG. 1) [2]: significant activity

fumaric
antibacterial activity after acid activation (FIG. 1) [2]: little to no antibacterial activity

sulfuric
antibacterial activity after acid activation (FIG. 1) [2]: little to no antibacterial activity
